Assay results reported in patent US20250213547A1, “METHODS OF TREATING NEUROLOGICAL DISEASES” (priority 2022, published 2025).

Legend:
[1] = Multiple rising dose study: PK of soticlestat and M-I (day 1, day 14), oral solution; type: in vivo, human; conditions: for AUC24 mean / AUC∞, mean / Cmax, mean / Tmax, median: soticlestat plasma; for CLR, mean: soticlestat urine
From the text: The second trial was a phase I, randomized, double-blind, placebo-controlled study, with soticlestat administered by oral solution at multiple escalating doses in healthy subjects. The criteria for subject inclusion and exclusion are similar to those of the first trial described above but with the added screening of female subjects for pregnancy. […] After a cohort finished their dosage regimen, a decision was made whether to escalate the dosage for the next cohort. Cohorts 1, 2, and 3 received 100, 300, and 400 mg once daily (QD), respectively, and cohorts 4 and 5 received 300 mg twice daily (BID) or 600 mg QD. The regimen for cohorts 4 and 5 were discontinued after subjects began experiencing adverse neurological and psychiatric events. Example 6 describes the PK protocol and the results.
The blood sampling protocol included obtaining a 4-ml blood sample for PK analysis 30 minutes pre-dose, and at 10, 15, 20, and 30 minutes and 1, 1.5, 2, 3, 4, 6, 8, 10, 12, 16, and 24 hours post-dose on days 1 and 14. Cohort 3, receiving 400 mg QD, had additional blood samples taken on day 7 at 15 and 30 minutes, and 1, 2, 4, and 8 hours post-dose. […] The median time for Cmax (Tmax) across the dose range varied between 0.33-0.5 hours. […] The 24 hour plasma area under the concentration-time curve (AUC24) for doses 100, 300, and 400 mg at day 14 were 458, 2690, and 2800 ng×h/mL, respectively. The concentration time profiles were similar from day 1 through day 14.
This study administered soticlestat to healthy male and female adults in an oral solution at escalating daily dose levels. […] Eight subjects were randomly assigned to one of five cohorts, with two subjects in each cohort receiving a placebo. Single daily dosing occurred in the morning after a minimum fast of 8 hours and subjects continued fasting until 2 hours post-dose. […] After a full review of the safety data from cohorts 1 and 2, including vitals, physical examination, BMI, adverse events, and clinical laboratory tests, […] were approved to receive increased dosages of 300 mg twice daily (BID) and 600 mg once daily (QD), respectively.
All cohorts had additional blood samples taken 30 minutes pre-dose on days 7, 11, 12, and 13. […] had additional blood samples taken for PK data on day 7 at post-dose times 15 and 30 minutes, and 1, 2, 4, and 8 hours. The PK parameter analysis was performed as described in example 2. […] A power model estimated the dose proportionality for Cmax and AUC∞ on day 1 and day 14 for cohorts receiving once daily dosing. An analysis of variance (ANOVA) assessed the variation in time dependency for Cmax and AUC∞ on day 1 and day 14 for cohorts receiving once daily dosing.
Pre-dose urine samples were collected for PK analysis for 12 hours pre-dose of day 1 and for 2 hours pre-dose of day 14. Post-dose urine samples were collected at intervals of 0-6, 6-12, and 12-24 hours.

[2] = system: seizure frequency in pediatric patients with Dravet syndrome or Lennox-Gastaut syndrome; experiment: ELEKTRA: percent change in seizure frequency from baseline; type: in vivo, human; conditions: for Number of patients with 25% reduction in seizures (responders) / Number of patients with 50% reduction in seizures (responders) / Number of patients with 75% reduction in seizures (responders) / Number of patients with 100% reduction in seizures (responders): maintenance period; for Median percent change in seizure frequency from baseline / Range of percent change in seizure frequency from baseline / seizure frequency change from baseline versus placebo: ELEKTRA; for Median percent change in seizure frequency from baseline / Range of percent change in seizure frequency from baseline: N 64; for seizure frequency change from baseline versus placebo: pediatric DEE patients
From the text: Other inclusion criteria were body weight ≥10 kg, currently taking a fixed dosage of 1 to 4 antiseizure medications, and failure to remain seizure free after trying at least two antiseizure medications. Convulsive seizures include focal to bilateral tonic-clonic with impaired awareness, hemi-clonic, simultaneous bilateral clonic, and generalized tonic-clonic seizures. Drop seizures can involve the entire body, trunk, or head which leads to falling. […] Approximately 126 patients ages ≥2 and ≤17 years were enrolled in the study. The study included two main phases, a 4-6 week screening and baseline period, and a 20-week treatment period. Patients received doses twice a day in a tablet formulation. The starting dose was adjusted according to the patient's body weight (Table 17).
During the first 8 weeks of treatment patient dosing was a titrated for individual optimization. The remaining 12-weeks of treatment consisted of a maintenance phase. The study began with treating patients ≥9 years of age for one month before treating younger patients. Blood was collected for PK analysis on the first dosage day within one hour of the morning dose, and 30 minutes, and 1, 2, 3, and 4 hours post-dose. Subsequent blood sampling took place before the morning dose and 30 minutes post-dose. Blood samples were obtained at scheduled times for determining PK profile and Tmax, which is the time Cmax was reached. A patient's seizure frequency was recorded before and during the trial to calculate percent change from baseline.
The ELEKTRA study is described in the specification and in examples 12 and 13. […] Statistical significance was computed using a Rank Transformed Analysis of Covariance (ANCOVA) with a 2-side p-value, while adjusting for baseline seizure frequency and indication.

[3] = Dravet syndrome, Weeks 9-20, N 24

Compound: O=C(c1cccnc1-c1ccncc1)N1CCC(O)(Cc2ccccc2)CC1 [soticlestat]
- accumulated exposure, AUC24 day 14 ([1]; both, human, in vivo, 300 mg): ~1.42 fold
- accumulated exposure, Cmax day 14 ([1]; both, human, in vivo, 300 mg, 14 days): approximately 1.74 fold
- t½z, mean ([1]; both, human, in vivo, 600 mg): 290 min
- CL/F, mean ([1]; human, in vivo, 600 mg): 194 L/h
- AUC24 mean ([1]; 100 mg QD day 1): 446 ng·h/mL
- AUC∞, mean ([1]; 100 mg QD day 1): 451 ng·h/mL
- Cmax, mean ([1]; 100 mg QD day 1): 468 ng/mL
- Tmax, median ([1]; 100 mg QD day 1): 25.2 min
- AUC24 mean ([1]; 100 mg QD day 14): 458 ng·h/mL
- AUC∞, mean ([1]; 100 mg QD day 14): 509 ng·h/mL
- Cmax, mean ([1]; 100 mg QD day 14): 481 ng/mL
- Tmax, median ([1]; 100 mg QD day 14): 25.2 min
- AUC24 mean ([1]; 300 mg BID day 1 (first dose)): 1460 ng·h/mL
- AUC∞, mean ([1]; 300 mg BID day 1 (first dose)): 1510 ng·h/mL
- Cmax, mean ([1]; 300 mg BID day 1 (first dose)): 1330 ng/mL
- Tmax, median ([1]; 300 mg BID day 1 (first dose)): 26.4 min
- AUC24 mean ([1]; 300 mg QD day 1): 2030 ng·h/mL
- AUC∞, mean ([1]; 300 mg QD day 1): 2040 ng·h/mL
- Cmax, mean ([1]; 300 mg QD day 1): 2020 ng/mL
- Tmax, median ([1]; 300 mg QD day 1): 25.2 min
- AUC24 mean ([1]; 300 mg QD day 14): 2690 ng·h/mL
- AUC∞, mean ([1]; 300 mg QD day 14): 2840 ng·h/mL
- Cmax, mean ([1]; 300 mg QD day 14): 3100 ng/mL
- Tmax, median ([1]; 300 mg QD day 14): 19.8 min
- AUC24 mean ([1]; 400 mg QD day 1): 2500 ng·h/mL
- AUC∞, mean ([1]; 400 mg QD day 1): 2520 ng·h/mL
- Cmax, mean ([1]; 400 mg QD day 1): 2630 ng/mL
- Tmax, median ([1]; 400 mg QD day 1): 19.8 min
- AUC24 mean ([1]; 400 mg QD day 14): 2800 ng·h/mL
- AUC∞, mean ([1]; 400 mg QD day 14): 3090 ng·h/mL
- Cmax, mean ([1]; 400 mg QD day 14): 2930 ng/mL
- Tmax, median ([1]; 400 mg QD day 14): 19.8 min
- AUC24 mean ([1]; 600 mg QD day 1): 4180 ng·h/mL
- AUC∞, mean ([1]; 600 mg QD day 1): 4220 ng·h/mL
- Cmax, mean ([1]; 600 mg QD day 1): 3060 ng/mL
- Tmax, median ([1]; 600 mg QD day 1): 30 min
- CLR, mean ([1]; 100 mg QD day 1): 0.220 L/h
- CLR, mean ([1]; 100 mg QD day 14): 0.200 L/h
- CLR, mean ([1]; 300 mg BID day 1): 0.350 L/h
- CLR, mean ([1]; 300 mg QD day 1): 0.300 L/h
- CLR, mean ([1]; 300 mg QD day 14): 0.220 L/h
- CLR, mean ([1]; 400 mg QD day 1): 0.370 L/h
- CLR, mean ([1]; 400 mg QD day 14): 0.380 L/h
- CLR, mean ([1]; 600 mg QD day 1): 0.340 L/h
- Median percent change in convulsive seizure frequency per 28 days from baseline [2, 3]: −36.5%
- Range of percent change in convulsive seizure frequency per 28 days from baseline [2, 3]: (−100 to 84.1) %
- Number of patients with 25% reduction in seizures (responders) ([2]; Dravet syndrome, N 24): 66.7
- Number of patients with 50% reduction in seizures (responders) ([2]; Dravet syndrome, N 24): 41.7
- Number of patients with 75% reduction in seizures (responders) ([2]; Dravet syndrome, N 24): 20.8
- Number of patients with 100% reduction in seizures (responders) ([2]; Dravet syndrome, N 24): 8.3
- Median percent change in seizure frequency from baseline ([2]; Weeks 0-20): −30.05%
- Range of percent change in seizure frequency from baseline ([2]; Weeks 0-20): (−100-347.5) %
- Median percent change in seizure frequency from baseline ([2]; Weeks 9-20): −27.76%
- Range of percent change in seizure frequency from baseline ([2]; Weeks 9-20): (−100 to 160.6) %
- Median percent change from baseline in drop seizure frequency per 28 days ([2]; Lennox-Gastaut syndrome, Weeks 9-20, N 40): −18.46%
- Number of patients with 25% reduction in seizures (responders) ([2]; Lennox-Gastaut syndrome, N 40): 42.5
- Number of patients with 50% reduction in seizures (responders) ([2]; Lennox-Gastaut syndrome, N 40): 27.5
- Number of patients with 75% reduction in seizures (responders) ([2]; Lennox-Gastaut syndrome, N 40): 10
- Number of patients with 100% reduction in seizures (responders) ([2]; Lennox-Gastaut syndrome, N 40): 5
- seizure frequency change from baseline versus placebo [2]: highly significant
- seizure frequency change from baseline versus placebo ([2]; listed as Soticlestat): significantly decreased seizure frequency
